These are literature values, as cited in US4795743A, “2'-deamino-2'-hydroxyistamycin Bo derivatives of low toxicity” (Zaidan Hojin Biseibutsu Kagaku Kenkyu Kai, priority 1986, dated 1989).

The test system of this data set is resistant bacteria, Pseudomonas aeruginosa, resistant strains of gram-negative and gram-positive bacteria. The settings on record: background, earlier filings; cited from earlier work.

In the case of `CNCC1CCC(N)C(OC2C(N)CC(O)C(N(C)C(=O)CN)C2O)O1` (stereo not shown) [3-O-demethylistamycin B], the antibacterial activity result was “active against resistant bacteria, Pseudomonas aeruginosa and also against a variety of resistant strains of gram-negative and gram-positive bacteria”.
